{"source": "patent US11124788B2", "about": "“Asx-specific protein ligase” (NANYANG TECHNOLOGICAL UNIVERSITY, priority 2014, dated 2021)", "molecules": {"B1": {"name": "butelase 1: Asx-specific peptide ligase/cyclase isolated from Clitoria ternatea, amino acid sequence SEQ ID NO:1 (protein, listed as Clitoria ternatea)", "chain": "VEGTRWAVLVAGSKGYVNYRHQADVCHAYQILKKGGLKDENIIVFMYDDIAYNESNPHPGVIINHPYGSDVYKGVPKDYVGEDINPPNFYAVLLANKSALTGTGSGKVLDSGPNDHVFIYYTDHGGAGVLGMPSKPYIAASDLNDVLKKKHASGTYKSIVFYVESCESGSMFDGLLPEDHNIYVMGASDTGESSWVTYCPLQHPSPPPEYDVCVGDLFSVAWLEDCDVHNLQTETFQQQYEVVKNKTIVALIEDGTHVVQYGDVGLSKQTLFVYMGTDPANDNNTFTDKNSLGTPRKAVSQRDADLIHYWEKYRRAPEGSSRKAEAKKQLREVMAHRMHIDN"}}, "key": {"butelase 1 [1]": {"system": "butelase 1", "assay": "Michaelis-Menten kinetics of butelase 1 as a peptide cyclase", "type": "biochemical, Clitoria ternatea"}, "jack bean legumain": {"molecular_target": "T1, jack bean legumain (Canavalia ensiformis, UniProt P49046)", "T1 construct": "purchased Takara Bio (Japan)", "T1 sequence (P49046 36-475)": "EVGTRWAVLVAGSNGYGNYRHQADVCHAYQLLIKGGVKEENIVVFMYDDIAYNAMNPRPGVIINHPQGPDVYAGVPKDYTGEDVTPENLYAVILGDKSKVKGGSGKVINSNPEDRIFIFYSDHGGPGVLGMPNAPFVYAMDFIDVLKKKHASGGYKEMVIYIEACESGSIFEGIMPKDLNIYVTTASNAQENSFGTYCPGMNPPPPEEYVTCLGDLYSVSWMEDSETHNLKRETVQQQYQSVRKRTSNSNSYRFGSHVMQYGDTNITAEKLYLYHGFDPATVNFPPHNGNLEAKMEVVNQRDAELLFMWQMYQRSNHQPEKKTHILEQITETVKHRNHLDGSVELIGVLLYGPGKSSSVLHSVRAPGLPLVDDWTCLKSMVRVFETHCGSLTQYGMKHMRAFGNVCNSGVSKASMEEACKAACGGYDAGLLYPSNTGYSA", "assay": "Hydrolysis of Z-AAN-AMC by jack bean legumain (positive control)", "type": "biochemical", "details": "same experimental conditions, 30 h"}, "butelase 1 [2]": {"system": "butelase 1", "assay": "Hydrolysis of Z-AAN-AMC by butelase 1 (asparaginyl endopeptidase activity)", "type": "biochemical, Clitoria ternatea", "details": "50 mM Z-AAN-AMC, 30 h"}, "butelase 1 [3]": {"system": "butelase 1", "assay": "In vitro cyclization of peptide/protein substrates by butelase 1 (HPLC/MS yield)", "type": "biochemical, Clitoria ternatea"}, "[4]": {"assay": "Storage stability of purified butelase 1", "details": "30 days at 4° C."}, "[5]": {"assay": "Solubility of butelase 1 in water"}, "[6]": {"details": "butelase 1 cyclization, 37° C., 0.125 μM enzyme, 12 min (SA-kB1-NHV: 5 nM, 6 min)"}}, "note": "Read-outs that look alike come from different tables or passages of the source. Residues, ends and D or L forms follow the SMILES beside them. *: point of attachment. AMC = Cc1cc(=O)oc2cc(N*)ccc12; Cbz = O=C(OCc1ccccc1)*"}
{"molecule": "Neuromedin ∪", "values": [{"measurement": "Km", "setting": "butelase 1 [1]", "value": "8.7 ± 2.1", "unit": "µM"}, {"measurement": "kcat", "setting": "butelase 1 [1]", "value": "5.78 ± 0.36", "unit": "s⁻¹"}]}
{"molecule": "Cc1cc(=O)oc2cc(NC(=O)[C@H](CC(N)=O)NC(=O)[C@H](C)NC(=O)[C@H](C)NC(=O)OCc3ccccc3)ccc12", "note": "[Z-AAN-AMC, N-carbobenzyloxy-Ala-Ala-Asn-7-amido-4-methylcoumarin] (Cbz-Ala-Ala-Asn-{AMC})", "values": [{"measurement": "Hydrolysis of Z-AAN-AMC", "setting": "jack bean legumain", "value": "completely hydrolyzed"}, {"measurement": "Hydrolyzed product formed (RP-HPLC)", "setting": "butelase 1 [2]", "value": "< 3", "unit": "%"}]}
{"molecule": "SFTI-NHV: SEQ ID NO:135, GRCTKSIPPICFPNHV; 16-residue linear substrate", "values": [{"measurement": "Km", "setting": "butelase 1 [1]; [6]", "value": "51 ± 4", "unit": "µM"}, {"measurement": "kcat", "setting": "butelase 1 [1]; [6]", "value": "0.6 ± 0.02", "unit": "s⁻¹"}, {"measurement": "kcat", "setting": "butelase 1 [1]; butelase 1 cyclization, 37° C., 0.125 μM enzyme, 12 min (SA-kB1-NHV: 5 nM, 6 min), listed as SFT1-NHV", "value": "0.6 ± 0.02", "unit": "s⁻¹"}, {"measurement": "Cyclization efficiency, SFTI-NHV compared with SFTI-DHV", "setting": "butelase 1 [3]", "value": "significantly more efficient"}]}
{"molecule": "Apelin", "values": [{"measurement": "Km", "setting": "butelase 1 [1]", "value": "6.7 ± 1.4", "unit": "µM"}, {"measurement": "kcat", "setting": "butelase 1 [1]", "value": "5.78 ± 0.25", "unit": "s⁻¹"}]}
{"molecule": "B1", "values": [{"measurement": "Stability of enzyme activity", "setting": "[4]", "value": "minimal loss of activity"}, {"measurement": "Solubility in water (concentration achieved)", "setting": "[5]", "value": 10, "unit": "mg/mL"}, {"measurement": "Catalytic activities", "setting": "butelase 1 [1]; highest value stated in the summary", "value": "≤ 542,000 M^−s^−1"}, {"measurement": "Catalytic rate relative to sortase A", "setting": "butelase 1 [3]; GFP as a model protein", "value": "~10,000"}]}
